Reference: patent US20230174649A1, “PHARMACEUTICAL COMPOSITIONS CONTAINING ANTI-CD47 ANTIBODIES” (I-MAB BIOPHARMA US LIMITED, priority 2020, published 2023)
Where “and” joins values, the source holds several entries; their conditions need not be identical. Identical values can stand only once.

Key:
Assay type in all cases: cell-based, Human
[1] = system: CD47; test: FACS analysis of expression level of CD47 on tumor cell surface; details: Toledo cells; for Mean Fluorescence Intensity (MFI) CD47: 12 hours
Procedure: (§1) For FACS analysis, on the day of analysis (day 1), Toledo cells were seeded into 96 well plate and cultured at a density of 0.2×10^6 cells/well. Then the cells were treated with the selected small molecule therapeutic agents for 12 hours.
(§2) On day 2, cells were harvested, washed twice and then re-suspended in 100 uL FACS buffer subject to FACS analysis. For detection of the expression of calreticulin and CD47, cells were incubated with anti-calreticulin antibody and commercially available anti-CD47 antibody (BD Biosciences, Catalog number: 561249) in dark at 4° C. for 30 mins.
(§3) Then, the cells were subject to FACS analysis. Data was acquired and analyzed.

[2] = system: macrophages; test: Macrophage Viability Assay (CellTiter-Glo); details: for Macrophage viability (CellTiter-Glo Luminescent Cell Viability Assay): 16 hours, three replicate lines; for toxicity to macrophages: dose of 0.1-50 μM
Procedure: Then, the monocytes isolated by MACS were subsequently cultured in fresh complete medium supplemented with recombinant human granulocyte-macrophage colony-stimulating factor GM-CSF (50 ng/ml) and human recombinant IL-4 (35 ng/ml) to activate differentiated macrophages. After 6 days of culture (on day 7), cells were harvested, pooled together and counted for next use.
The cells from Example 2 were plated into a 96-well flat bottom plate at a density of 0.05×10^6 cells/well. After 2 hours of incubation, the macrophages were well attached to the plate. Then selected small molecule therapeutic agents were added to the well and cocultured for 16 hours. On day 8, macrophage viability was assessed by CellTiter-Glo® Luminescent Cell Viability Assay, according to the manufacture's instruction.

[3] = system: Calreticulin; test: FACS analysis of expression level of calreticulin on tumor cell surface; details: Toledo cells; for Mean Fluorescence Intensity (MFI) Calreticulin: 12 hours
Procedure: as §1, §2, §3

Row | Structure (SMILES) | Mean Fluorescence Intensity (MFI) CD47 ([1]; 0.008 uM) | Mean Fluorescence Intensity (MFI) CD47 ([1]; 0.04 uM) | Mean Fluorescence Intensity (MFI) CD47 ([1]; 0.2 uM) | Mean Fluorescence Intensity (MFI) CD47 ([1]; 1 uM) | Mean Fluorescence Intensity (MFI) CD47 ([1]; 5 uM) | Macrophage viability (CellTiter-Glo Luminescent Cell Viability Assay) ([2]; Cpd 0.002 uM) | Macrophage viability (CellTiter-Glo Luminescent Cell Viability Assay) ([2]; Cpd 0.008 uM) | Macrophage viability (CellTiter-Glo Luminescent Cell Viability Assay) ([2]; Cpd 0.04 uM) | Macrophage viability (CellTiter-Glo Luminescent Cell Viability Assay) ([2]; Cpd 0.2 uM) | Macrophage viability (CellTiter-Glo Luminescent Cell Viability Assay) ([2]; Cpd 1 uM) | Macrophage viability (CellTiter-Glo Luminescent Cell Viability Assay) ([2]; Cpd 5 uM) | Macrophage viability (CellTiter-Glo Luminescent Cell Viability Assay) ([2]; Cpd 25 uM) | Macrophage viability (CellTiter-Glo Luminescent Cell Viability Assay) ([2]; Cpd 50 uM) | toxicity to macrophages [2] | Mean Fluorescence Intensity (MFI) Calreticulin ([3]; 0.008 uM) | Mean Fluorescence Intensity (MFI) Calreticulin ([3]; 0.04 uM) | Mean Fluorescence Intensity (MFI) Calreticulin ([3]; 0.2 uM) | Mean Fluorescence Intensity (MFI) Calreticulin ([3]; 1 uM) | Mean Fluorescence Intensity (MFI) Calreticulin ([3]; 5 uM) | other results
1 | C[C@H](Nc1ncnc2nc[nH]c12)c1cc2cccc(Cl)c2c(=O)n1-c1ccccc1 [Duvelisib] | 8368 | 8376 | 8471 | 8432 | 8482 | 5688 and 5876 and 6184 | 5484 and 5444 and 5664 | 5228 and 5348 and 5760 | 5028 and 4984 and 5264 | 4592 and 4776 and 4880 | 4464 and 4584 and 4404 | 4176 and 4276 and 4156 | 3972 and 3992 and 3860 | obvious toxicity | 71.4 | 71.2 | 71.4 | 75.7 | 75.9 | 
2 | CC[C@H](Nc1ncnc2[nH]cnc12)c1nc2cccc(F)c2c(=O)n1-c1ccccc1 [Idelalisib] | 8342 | 8538 | 8246 | 8465 | 8263 | 5888 and 5908 and 5980 | 6164 and 6056 and 5948 | 6144 and 6304 and 5916 | 6040 and 6048 and 6220 | 5376 and 5640 and 5744 | 5092 and 5220 and 5060 | 4508 and 4884 and 4908 | 4404 and 4648 and 4964 | obvious toxicity | 69.4 | 72.9 | 70.6 | 77.6 | 75.8 | 
3 | COc1c(OCCCN2CCOCC2)ccc2c1N=C(NC(=O)c1cnc(N)nc1)N1CCN=C21 [Copanlisib] | 8024 | 8243 | 7844 | 7097 | 6803 | 5856 and 5928 and 6000 | 5272 and 4772 and 5388 | 4856 and 5120 and 4872 | 4572 (2×) and 4928 | 4156 and 4492 and 4368 | 3780 and 4352 and 4196 | 4108 and 4176 and 4248 | 2748 and 3032 and 3028 | obvious toxicity | 69.8 | 77 | 79.4 | 106 | 142 | effect on CD47 expression level [1]: only slightly inhibited; effect on expression level of Calreticulin [3]: only slightly increased
